Experimental data taken from ChEMBL document CHEMBL1156482, “Molecular mechanism of action of monocyclam versus bicyclam non-peptide antagonists in the CXCR4 chemokine receptor” (J Biol Chem, 2007).

Experiments:
[1] = target: C-X-C chemokine receptor type 4 (Homo sapiens, UniProt P61073, G207W); test: (§1) Displacement of [125I]12G5 antibody from transmembrane domain 5 of human CXCR4 G207W mutant expressed in COS7 cells; format: cell-based, COS-7
[2] = test system: C-X-C chemokine receptor type 4 (Homo sapiens), P61073 [G207W]; test: as §1; format: cell-based; conditions: COS-7
Chain of C-X-C chemokine receptor type 4 (Homo sapiens), P61073 [G207W] (P61073 whole entry G207W): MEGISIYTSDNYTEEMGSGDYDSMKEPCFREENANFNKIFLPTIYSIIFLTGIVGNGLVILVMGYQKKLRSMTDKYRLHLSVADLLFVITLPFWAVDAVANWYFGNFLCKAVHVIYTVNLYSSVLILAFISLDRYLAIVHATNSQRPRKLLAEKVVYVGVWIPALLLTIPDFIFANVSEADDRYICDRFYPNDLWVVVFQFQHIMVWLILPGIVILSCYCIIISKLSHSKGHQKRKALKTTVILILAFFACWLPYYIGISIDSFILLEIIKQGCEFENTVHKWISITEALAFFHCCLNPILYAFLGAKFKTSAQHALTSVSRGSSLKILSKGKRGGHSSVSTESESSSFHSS

[3] = target: C-X-C chemokine receptor type 4 (Homo sapiens, UniProt P61073, Y255A); test: (§2) Antagonist activity at human CXCR4 Y255A mutant expressed in COS7 cells coexpressing G protein Gqi4myr assessed as inhibition of CXCL12-induced phosphatidylinositol turnover; format: functional, cell-based, COS-7
Chain of C-X-C chemokine receptor type 4 (Homo sapiens, UniProt P61073, Y255A) (P61073 whole entry Y255A): as the sequence (P61073 whole entry G207W) above, with W207G, Y255A counted along it

[4] = test system: C-X-C chemokine receptor type 4 (Homo sapiens), P61073 [Y255A]; test: as §2; format: functional, cell-based; conditions: COS-7
Chain of C-X-C chemokine receptor type 4 (Homo sapiens), P61073 [Y255A] (P61073 whole entry Y255A): as the sequence (P61073 whole entry G207W) above, with W207G, Y255A counted along it

[5] = target: C-X-C chemokine receptor type 4 (Homo sapiens, UniProt P61073, A175F); test: (§3) Antagonist activity at human CXCR4 A175F mutant expressed in COS7 cells coexpressing G protein Gqi4myr assessed as inhibition of CXCL12-induced phosphatidylinositol turnover; format: functional, cell-based, COS-7
Chain of C-X-C chemokine receptor type 4 (Homo sapiens, UniProt P61073, A175F) (P61073 whole entry A175F): as the sequence (P61073 whole entry G207W) above, with A175F, W207G counted along it

[6] = test system: C-X-C chemokine receptor type 4 (Homo sapiens), P61073 [A175F]; test: as §3; format: functional, cell-based; conditions: COS-7
Chain of C-X-C chemokine receptor type 4 (Homo sapiens), P61073 [A175F] (P61073 whole entry A175F, the tested form may be a part): as the sequence (P61073 whole entry G207W) above, with A175F, W207G counted along it

[7] = target: C-X-C chemokine receptor type 4 (Homo sapiens, UniProt P61073, Q200W); test: (§4) Displacement of [125I]12G5 antibody from transmembrane domain 5 of human CXCR4 Q200W mutant expressed in COS7 cells; format: cell-based, COS-7
Chain of C-X-C chemokine receptor type 4 (Homo sapiens, UniProt P61073, Q200W) (P61073 whole entry Q200W, the tested form may be a part): as the sequence (P61073 whole entry G207W) above, with Q200W, W207G counted along it

[8] = test system: C-X-C chemokine receptor type 4 (Homo sapiens), P61073 [Q200W]; test: as §4; format: cell-based; conditions: COS-7
Chain of C-X-C chemokine receptor type 4 (Homo sapiens), P61073 [Q200W] (P61073 whole entry Q200W, the tested form may be a part): as the sequence (P61073 whole entry G207W) above, with Q200W, W207G counted along it

[9] = test system: C-X-C chemokine receptor type 4 (Homo sapiens), P61073 [I284A]; test: (§5) Displacement of [125I]12G5 antibody from transmembrane domain 7 of human CXCR4 I284A mutant expressed in COS7 cells; format: cell-based; conditions: COS-7
Chain of C-X-C chemokine receptor type 4 (Homo sapiens), P61073 [I284A] (P61073 whole entry I284A, the tested form may be a part): as the sequence (P61073 whole entry G207W) above, with W207G, I284A counted along it

[10] = target: C-X-C chemokine receptor type 4 (Homo sapiens, UniProt P61073, I284A); test: as §5; format: cell-based, COS-7
Chain of C-X-C chemokine receptor type 4 (Homo sapiens, UniProt P61073, I284A) (P61073 whole entry I284A, the tested form may be a part): as the sequence (P61073 whole entry G207W) above, with W207G, I284A counted along it

[11] = target: C-X-C chemokine receptor type 4 (Homo sapiens, UniProt P61073, F172A); test: (§6) Displacement of [125I]12G5 antibody from transmembrane domain 4 of human CXCR4 F172A mutant expressed in COS7 cells; format: cell-based, COS-7
Chain of C-X-C chemokine receptor type 4 (Homo sapiens, UniProt P61073, F172A) (P61073 whole entry F172A, the tested form may be a part): as the sequence (P61073 whole entry G207W) above, with F172A, W207G counted along it

[12] = test system: C-X-C chemokine receptor type 4 (Homo sapiens), P61073 [F172A]; test: as §6; format: cell-based; conditions: COS-7
Chain of C-X-C chemokine receptor type 4 (Homo sapiens), P61073 [F172A] (P61073 whole entry F172A, the tested form may be a part): as the sequence (P61073 whole entry G207W) above, with F172A, W207G counted along it

[13] = test system: C-X-C chemokine receptor type 4 (Homo sapiens), P61073 [H203A]; test: (§7) Displacement of [125I]12G5 antibody from transmembrane domain 5 of human CXCR4 H203A mutant expressed in COS7 cells; format: cell-based; conditions: COS-7
Chain of C-X-C chemokine receptor type 4 (Homo sapiens), P61073 [H203A] (P61073 whole entry H203A, the tested form may be a part): as the sequence (P61073 whole entry G207W) above, with H203A, W207G counted along it

[14] = target: C-X-C chemokine receptor type 4 (Homo sapiens, UniProt P61073, H203A); test: as §7; format: cell-based, COS-7
Chain of C-X-C chemokine receptor type 4 (Homo sapiens, UniProt P61073, H203A) (P61073 whole entry H203A, the tested form may be a part): as the sequence (P61073 whole entry G207W) above, with H203A, W207G counted along it

[15] = test system: C-X-C chemokine receptor type 4 (Homo sapiens), P61073 [Y256A]; test: (§8) Displacement of [125I]12G5 antibody from transmembrane domain 6 of human CXCR4 Y256A mutant expressed in COS7 cells; format: cell-based; conditions: COS-7
Chain of C-X-C chemokine receptor type 4 (Homo sapiens), P61073 [Y256A] (P61073 whole entry Y256A, the tested form may be a part): as the sequence (P61073 whole entry G207W) above, with W207G, Y256A counted along it

[16] = target: C-X-C chemokine receptor type 4 (Homo sapiens, UniProt P61073, Y256A); test: as §8; format: cell-based, COS-7
Chain of C-X-C chemokine receptor type 4 (Homo sapiens, UniProt P61073, Y256A) (P61073 whole entry Y256A): as the sequence (P61073 whole entry G207W) above, with W207G, Y256A counted along it

[17] = test system: C-X-C chemokine receptor type 4 (Homo sapiens), P61073 [D187A]; test: (§9) Displacement of [125I]12G5 antibody from extracellular loop 2 of human CXCR4 D187A mutant expressed in COS7 cells; format: cell-based; conditions: COS-7
Chain of C-X-C chemokine receptor type 4 (Homo sapiens), P61073 [D187A] (P61073 whole entry D187A): as the sequence (P61073 whole entry G207W) above, with D187A, W207G counted along it

[18] = target: C-X-C chemokine receptor type 4 (Homo sapiens, UniProt P61073, D187A); test: as §9; format: cell-based, COS-7
Chain of C-X-C chemokine receptor type 4 (Homo sapiens, UniProt P61073, D187A) (P61073 whole entry D187A): as the sequence (P61073 whole entry G207W) above, with D187A, W207G counted along it

Chain of C-X-C chemokine receptor type 4 (Homo sapiens, UniProt P61073, G207W) (P61073 whole entry G207W, the tested form may be a part): as the sequence (P61073 whole entry G207W) above

c1ccc(CNCc2ccc(CN3CCCNCCNCCCNCC3)cc2)nc1 was tested, and the Ki [1] was 130 nM, the logKi [2] was -6.88 and the Ki [3] was 20 nM. For the same molecule, the logIC50 [4] was -7.79, the Ki [5] was 1300 nM and the logIC50 [6] was -5.89. The Ki [7] was 1200 nM, the logKi [8] was -5.94 and the logKi [9] was -4.34. It also gave a Ki [10] of 46000 nM, a Ki [11] of 560 nM and a logKi [12] of -6.25. For the same molecule, the logKi [13] was -6.35, the Ki [14] was 440 nM and the logKi [15] was -6.5. It also gave a Ki [16] of 320 nM, a logKi [17] of -6.27 and a Ki [18] of 530 nM.
